logP data for 13 compounds are collected here from the SangsterLogP compilation.

Consider `CN1CCCCC1CCN1c2ccccc2Sc2ccc(S(C)(=O)=O)cc21` (stereo not drawn), for which the logP was found to be 4.45.
As for `CC(C)NCC(O)COc1cccc2c1N(C(=O)c1cccnc1)CCC2` (stereo not drawn), the logP was determined as 1.63.
In the case of `CC(C)NCCCC1(C(N)=O)c2ccccc2-c2ccccc21`, the logP amounted to 3.11.
To `CN(C)CCCN1c2ccccc2Sc2ccccc21` belongs 4.64.
The same measure for `CNC(=O)Nc1c(OCCN2CCCC2)c(OC)c2occc2c1OC`: 1.38.
On to `O=C(NCC1CCCCN1)c1cc(OCC(F)(F)F)ccc1OCC(F)(F)F` (stereo not drawn), for which the logP was found to be 3.78.
The same measure for `C=CCN1CCCC1CNC(=O)c1cc(S(N)(=O)=O)cc(OC)c1OC` (stereo not drawn): 1.47; for `COc1ccc2c(c1)-c1c(ccc(OC)c1O)CC(CCc1ccccc1)N(C)CC2` (stereo not drawn): 4.85; for `CN1CCN(CCCN2c3ccccc3Sc3ccccc32)CC1`: 4.
In turn, `CCN(CC)CCNC(=O)c1ccc(N)cc1` came in with a logP of 0.82.
`C=CCN1CCCC1CNC(=O)c1cc(S(=O)(=O)NC)c(N)cc1OC` (stereo not drawn) came in with a logP of 1.69.
`CC(C)(C)c1cc(C(O)CCC2CCNCC2)c2ccccc2n1` (stereo not drawn): the logP amounted to 3.63.
`CCN(CC)CCCN(c1ccccc1)C1Cc2ccccc2C1`: the logP came to 4.86.

A word on the logP: it is the decadic logarithm of the partition coefficient of the neutral form, usually between octanol and water. The low end stands for lower lipophilicity, the high end for higher lipophilicity.
